This assay addresses T1, GTPase KRas [1-37] (Homo sapiens, UniProt G3V5T7).
T1 construct: 1-37
In words: inhibition of fluorescent GTP binding to wild-type Ras – biochemical, pyrazoline analogs, multiplex bead flow cytometry, SAR follow-up (AID 2047). On the technique in general: In flow cytometry, cells or beads pass a laser one at a time.

Setting [1] is: inactive by the depositor's call.

pEC50: −log10 of the molar value.

T1 sequence (G3V5T7 whole entry): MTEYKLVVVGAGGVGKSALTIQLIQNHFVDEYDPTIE

As a reminder, the pEC50 is the EC50 on a negative log10 scale, so that one unit is a factor of ten. A lower pEC50 goes with a large EC50. With `Cc1onc(-c2ccccc2)c1-c1ccc(S(N)(=O)=O)cc1`, the pEC50 was under 4.52. Same read-out and setting: the same measure for `Fc1ccccc1C1CC(c2ccc(Br)cc2)=NN1c1ccc(Br)cc1` (centres undefined) [2,5-bis(4-bromophenyl)-3-(2-fluorophenyl)-3,4-dihydropyrazole]: under 4.52; for `CN(C)c1ccc(C2CC(c3ccc(Br)cc3)=NN2c2ccccc2)cc1` (centres undefined) [UNM-0000305846]: under 4.52. `O=[N+]([O-])c1cccc(C2C[C-](c3ccc(F)cc3)N=[N+]2c2ccccc2)c1` (centres undefined) [5-(4-fluorophenyl)-3-(3-nitrophenyl)-2-phenyl-3,4-dihydropyrazole]: the pEC50 is under 4.52. The same measure, in the same setting: the same measure for `NS(=O)(=O)c1ccc(N2N=C(c3ccccc3)CC2c2cccc(Br)c2)cc1` (centres undefined) [UNM-0000306147]: under 4.52. `COc1ccc(C2CC(c3ccccc3)=NN2c2ccc(Cl)c(C(=O)O)c2)cc1` (centres undefined): the pEC50 under setting [1] was 5.99. In the case of `NS(=O)(=O)c1ccc(N2N=C(c3ccccc3)CC2c2ccccc2Br)cc1` (centres undefined) [4-[3-(2-bromophenyl)-5-phenyl-3,4-dihydropyrazol-2-yl]benzenesulfonamide], the pEC50 was under 4.52. The same measure, in the same setting: the same measure for `FC(F)(F)c1cccc(N2N=C(c3ccc(Cl)cc3)CC2c2ccccc2Cl)c1` (centres undefined) [UNM-0000305859]: under 4.52.

Consider `COc1ccc(C2=NN(c3ccccc3)C(c3ccccc3C(F)(F)F)C2)cc1` (centres undefined), for which the pEC50 under setting [1] is 4.75. The compound `COc1ccc(C2C[C-](c3ccccc3)N=[N+]2c2ccc([N+](=O)[O-])cc2)cc1` (centres undefined) [3-(4-methoxyphenyl)-2-(4-nitrophenyl)-5-phenyl-3,4-dihydropyrazole] showed a pEC50 of under 4.52. Still for that read-out and setting: the same measure for `COc1ccc(C2CC(c3ccccc3Br)=NN2c2ccc(S(N)(=O)=O)cc2)cc1` (centres undefined) [UNM-0000306112]: under 4.52.

Turning to `NS(=O)(=O)c1ccc(N2N=C(c3ccccc3)CC2c2ccc(Cl)cc2)cc1` (centres undefined) [4-[3-(4-chlorophenyl)-5-phenyl-3,4-dihydropyrazol-2-yl]benzenesulfonamide], the pEC50 is under 4.52. The same measure, in the same setting: then `COc1ccc(C2CC(c3ccccc3C)=NN2c2ccc(S(N)(=O)=O)cc2)cc1` (centres undefined) [UNM-0000306152], with under 4.52; and `COc1ccc(C2CC(c3ccc(F)cc3)=NN2c2cc(Cl)ccc2Cl)cc1` (centres undefined) [2-(2,5-dichlorophenyl)-5-(4-fluorophenyl)-3-(4-methoxyphenyl)-3,4-dihydropyrazole], with under 4.52; and `COc1ccc(C2CC(c3cccc(N(C)C)c3)=NN2c2ccc(S(N)(=O)=O)cc2)cc1` (centres undefined), with under 4.52. The same measure, in the same setting: the same measure for `COc1ccc(C2CC(C3CCCCC3)=NN2c2ccc(S(N)(=O)=O)cc2)cc1` (centres undefined) [4-[5-cyclohexyl-3-(4-methoxyphenyl)-3,4-dihydropyrazol-2-yl]benzenesulfonamide]: under 4.52. For `COc1ccc(C2=NN(c3ccccc3)C(c3ccc(Cl)cc3)C2)cc1` (centres undefined) [UNM-0000305833], the pEC50 was under 4.52.

`COc1ccccc1C1CC(c2ccccc2)=NN1c1ccc(S(N)(=O)=O)cc1` (centres undefined) [4-[3-(2-methoxyphenyl)-5-phenyl-3,4-dihydropyrazol-2-yl]benzenesulfonamide] had a pEC50 of under 4.52. Still for that read-out and setting: the same measure for `COc1ccc(C2CC(c3ccccc3)=NN2c2ccc(S(N)(=O)=O)cc2)cc1OC` (centres undefined) [UNM-0000305823]: under 4.52. Take `COc1ccc(C2CC(c3ccc(F)cc3)=NN2c2ccc(S(N)(=O)=O)cc2)cc1` (centres undefined) [4-[5-(4-fluorophenyl)-3-(4-methoxyphenyl)-3,4-dihydropyrazol-2-yl]benzenesulfonamide]: the pEC50 under setting [1] is 7.55. In turn, `CC(=O)Oc1ccc(C2=NN(c3ccccc3)C(c3ccccc3)C2)cc1` (centres undefined) showed a pEC50 of under 4.52. Still for that read-out and setting: then `COc1cccc(C2CC(c3ccccc3)=NN2c2ccc(S(N)(=O)=O)cc2)c1` (centres undefined) [4-[3-(3-methoxyphenyl)-5-phenyl-3,4-dihydropyrazol-2-yl]benzenesulfonamide], with under 4.52; and `COc1ccc(C2CC(c3cccs3)=NN2c2ccc(S(N)(=O)=O)cc2)cc1` (centres undefined) [KUC103438N], with under 4.52.

Compound `COc1ccc(C2CC(c3cccc(Br)c3)=NN2c2ccc(S(N)(=O)=O)cc2)cc1` (centres undefined) [UNM-0000306113] gave a pEC50 of under 4.52.
